Compared with `O=C(O)C1CCCN1C1CCNCC1` (stereo not drawn), `CC1CCC(CC(=O)O)CC1` (stereo not drawn) is lower in melting point: 197 to 199 °C for the first, 58 to 60 °C for the second.

Compared with `O=C(O)C1C2C=CC(C2)C1C(=O)N1CCN(CCO)CC1` (stereo not drawn), `CC(=O)N1CCC(C(=O)O)(c2ccccc2)CC1` is higher in melting point: 192 to 194 °C for the first, 207 to 209 °C for the second.

First: Nc1cc2c(nn1)CCNC2
Second: Cc1nnc(NN)[nH]c1=O
The melting point of the first is lower: 219 to 221 °C for the first, 237 to 239 °C for the second.

First: CCCCNC(=O)Nc1cccc2c1CCCN2
Second: NCC(=O)Nc1cccc2ncccc12
The melting point of the first is higher: 173 to 175 °C for the first, 128 to 130 °C for the second.

First: COc1ccc(S(N)(=O)=O)c(N)c1
Second: COc1ccc(C(=O)CCC(=O)O)c(Cl)c1
The melting point of the first is lower: 139 to 141 °C for the first, 165 to 167 °C for the second.

Compared with `ClCc1cc(Cl)cc2c1OCC2`, `COc1ccccc1-c1noc(CCl)n1` is higher in melting point: 46 to 48 °C for the first, 61 to 63 °C for the second.

Compared with `CC(Cl)C(=O)NCc1ccccc1F` (stereo not drawn), `Nc1ccccc1C(=O)NCc1ccccc1` is higher in melting point: 66 to 68 °C for the first, 125 to 127 °C for the second.

Compared with `CC(=O)c1nc2ccc(C)cc2[nH]1`, `Cc1ccc(NC(=O)N(C)C)c(C(=O)O)c1` is higher in melting point: 156 to 158 °C for the first, 163 to 165 °C for the second.

First: CN(C)c1ncnc2nc[nH]c12
Second: CN(C)c1ccc(C=O)s1
The melting point of the first is higher: 256 to 258 °C for the first, 65 to 67 °C for the second.

Compared with `Cc1nn(C)c(Cl)c1CO`, `Cc1nc(-c2c(C)c(C)nn(C)c2=O)sc1C(=O)O` is higher in melting point: 92 to 94 °C for the first, 239 to 241 °C for the second.

Compared with `COc1cn(-c2cccc(C(F)(F)F)c2)nc1C(=O)O`, `Cn1c(CO)nc2cc(C(F)(F)F)ccc21` is higher in melting point: 149 to 151 °C for the first, 170 to 172 °C for the second.

First: CCc1cc(=O)[nH]c(-c2ccc(Cl)nc2)n1
Second: O=c1[nH]c(CCl)nc2scc(-c3ccc(Cl)cc3)c12
The melting point of the first is higher: 208 to 210 °C for the first, 124 to 126 °C for the second.

Compared with `CC(=O)c1ccc(NC(=O)NC2CC2)cc1`, `CC(=O)CC(=O)Nc1cccc(C)c1` is lower in melting point: 161 to 163 °C for the first, 57 to 59 °C for the second.

Compared with `O=C(Nc1ccc(O)c(C(=O)O)c1)c1cc(Cl)cc(Cl)c1`, `O=C(O)c1ccc(Oc2ccc(Cl)cc2)c(Cl)c1` is lower in melting point: 288 to 290 °C for the first, 167 to 169 °C for the second.

First: Nc1nc(-c2ccc3c(c2)OCO3)cs1
Second: Cc1cc(C=O)c(C)n1-c1ccc2c(c1)OCCO2
The melting point of the first is higher: 176 to 180 °C for the first, 112 to 114 °C for the second.

Compared with `O=C(c1ccc(F)cc1)c1ccccn1`, `Nc1ccnn1Cc1ccc(F)cc1` is lower in melting point: 83 to 85 °C for the first, 59 to 61 °C for the second.

Compared with `CN1CCN(c2cc(CN)ccn2)CC1`, `COc1ccc(CN2CCCC2)cc1N` is lower in melting point: 72 to 74 °C for the first, 46 to 48 °C for the second.

First: CCn1c(=O)c2ccccc2n2c(CCl)nnc12
Second: O=C(O)CCCc1nnc(-c2ccccc2I)o1
The melting point of the first is higher: 195 to 197 °C for the first, 69 to 71 °C for the second.

Compared with `O=C(c1cccnc1Cl)N1CCCC1`, `Nc1cccc(C(=O)N2CCSCC2)c1` is higher in melting point: 77 to 79 °C for the first, 114 to 116 °C for the second.

First: CC(C)Cc1ccc(C=CC(=O)O)cc1
Second: CCOc1ccc(OCCOc2ccc(C=CC(=O)O)cc2OCC)cc1
The melting point of the first is lower: 159 to 161 °C for the first, 182 to 184 °C for the second.

First: Nc1cc(C(F)(F)F)ccc1Oc1ccc(Br)cc1
Second: O=C(Nc1ccc(F)cc1)OCC(F)(F)F
The melting point of the first is lower: 19 to 21 °C for the first, 76 to 80 °C for the second.

First: O=C(O)c1cccc(C(O)C(=O)O)c1 (stereo not drawn)
Second: COc1ccccc1NS(=O)(=O)c1cccc(C(=O)O)c1
The melting point of the first is higher: 189 to 191 °C for the first, 156 to 158 °C for the second.

First: CCOC(=O)CN1C(=O)C(=O)c2ccccc21
Second: CCOC(=O)Cn1cc(Br)ccc1=O
The melting point of the first is higher: 127 to 129 °C for the first, 81 to 83 °C for the second.

Compared with `CCc1ccc(C(=O)c2ccc([N+](=O)[O-])cc2)o1`, `Cc1ccc(CN(C)c2ccc(C(=O)O)cc2)cc1` is higher in melting point: 76 to 78 °C for the first, 177 to 179 °C for the second.

Compared with `N#Cc1cc([N+](=O)[O-])cnc1Cl`, `C=CCc1cc([N+](=O)[O-])ccc1O` is lower in melting point: 119 to 121 °C for the first, 68 to 70 °C for the second.

Compared with `CC(O)(C(=O)O)c1ccc(F)cc1` (stereo not drawn), `O=C(O)c1ccc(S(=O)(=O)CC(F)(F)F)cc1` is higher in melting point: 89 to 91 °C for the first, 239 to 241 °C for the second.

First: Cc1cc(Sc2ncccn2)ccc1N
Second: Cc1nc(N)n(-c2ccccc2)n1
The melting point of the first is lower: 126 to 128 °C for the first, 131 to 133 °C for the second.

Compared with `O=C1OCCN1c1cccc([N+](=O)[O-])c1`, `O=C(O)C1CCN(c2ccccc2Br)C1=O` (stereo not drawn) is higher in melting point: 135 to 137 °C for the first, 164 to 166 °C for the second.

Compared with `Nc1nnc(-c2ccsc2)s1`, `Oc1ccc(-c2cscn2)cc1` is lower in melting point: 211 to 213 °C for the first, 146 to 148 °C for the second.

First: NCC1(CO)CCOCC1
Second: NCCCN1C(=O)NC2(CCCC2)C1=O
The melting point of the first is lower: 54 to 56 °C for the first, 129 to 131 °C for the second.

First: CSc1cccc(NC2CCN(C)CC2)c1
Second: Cc1ccc(NC2C=CS(=O)(=O)C2)cc1C (stereo not drawn)
The melting point of the first is lower: 76 to 78 °C for the first, 177 to 179 °C for the second.

Compared with `N#Cc1ccc(OCCBr)cc1`, `Cc1ccc(CN2CC(C(=O)O)CC2=O)cc1` (stereo not drawn) is higher in melting point: 55 to 59 °C for the first, 152 to 156 °C for the second.

First: Nc1cncc(Br)c1Cl
Second: CS(=O)(=O)Cc1ccc(F)cc1CN
The melting point of the first is higher: 96 to 98 °C for the first, 77 to 79 °C for the second.

First: COc1cc(C)cc(C(=O)O)c1O
Second: Cc1ccc(S(=O)(=O)NC(CCC(N)=O)C(=O)O)cc1C (stereo not drawn)
The melting point of the first is higher: 189 to 191 °C for the first, 171 to 173 °C for the second.

Compared with `NCC(O)C1CC1` (stereo not drawn), `Nc1nc(C2CC2)c(C(=O)O)s1` is higher in melting point: 34 to 36 °C for the first, 99 to 101 °C for the second.

First: CCCCCNCC(N)=O
Second: CCc1ncsc1C(=O)O
The melting point of the first is lower: 64 to 66 °C for the first, 193 to 195 °C for the second.

`CC(=O)CC(=O)c1cnn(C)c1` gave a melting point of 88 to 90 °C.

Source: a melting point compilation (Tetko et al.)
